In brackets after ≈: the same amount, converted by molar mass. Activity calls are given as the source filed them. The rule behind the calls is not given here.
Key:
[1] = Binding affinity to mitogen-activated protein kinase p38 by thermal denaturation assay
THP-1 = assay: Inhibition of LPS-stimulated TNFalpha production in human THP1 cells; format: functional, cell-based
Blood = assay: Inhibition of LPS-stimulated TNFalpha production in human whole blood; format: functional, tissue-based
[2] = Solubility at pH 7.4; format: physicochemical; conditions: buffer
[3] = Apparent permeability across human Caco-2 cells; format: ADME, cell-based
[4] = molecular target: Mitogen-activated protein kinase 14 (Homo sapiens) (UniProt Q16539); assay: Activity at MAPK p38-alpha at 3 uM
[5] = Inhibition of JNK2a
[6] = Activity at MKK1 at 3 uM
[7] = molecular target: Mitogen-activated protein kinase 1 (Homo sapiens) (UniProt P28482); assay: Activity at ERK2 at 3 uM
[8] = molecular target: Mitogen-activated protein kinase 8 (Homo sapiens) (UniProt P45983); assay: Activity at JNK1 at 3 uM
[9] = molecular target: Mitogen-activated protein kinase 13 (Homo sapiens) (UniProt O15264); assay: Activity at MAPK p38delta at 3 uM
[10] = molecular target: Ribosomal protein S6 kinase alpha-1 (Homo sapiens) (UniProt Q15418); assay: Activity at MAPKAP-K1a at 3 uM
[11] = molecular target: MAP kinase-activated protein kinase 2 (Homo sapiens) (UniProt P49137); assay: Activity at MAPKAP-K2 at 3 uM
[12] = molecular target: Ribosomal protein S6 kinase alpha-5 (Homo sapiens) (UniProt O75582); assay: Activity at MSK1 at 3 uM
[13] = molecular target: MAP kinase-activated protein kinase 5 (Homo sapiens) (UniProt Q8IW41); assay: Activity at PRAK at 3 uM
[14] = Activity at PKA at 3 uM
[15] = molecular target: Protein kinase C alpha type (Homo sapiens) (UniProt P17252); assay: Activity at PKCalpha at 3 uM
[16] = Activity at PKBdeltaPH at 3 uM
[17] = molecular target: Serine/threonine-protein kinase Sgk1 (Homo sapiens) (UniProt O00141); assay: Activity at SGK at 3 uM
[18] = molecular target: Ribosomal protein S6 kinase beta-1 (Homo sapiens) (UniProt P23443); assay: Activity at S6K1 at 3 uM
[19] = molecular target: Glycogen synthase kinase-3 beta (Homo sapiens) (UniProt P49841); assay: Activity at GSK3-beta at 3 uM
Sequence of Glycogen synthase kinase-3 beta (Homo sapiens) (P49841 whole entry, looked up): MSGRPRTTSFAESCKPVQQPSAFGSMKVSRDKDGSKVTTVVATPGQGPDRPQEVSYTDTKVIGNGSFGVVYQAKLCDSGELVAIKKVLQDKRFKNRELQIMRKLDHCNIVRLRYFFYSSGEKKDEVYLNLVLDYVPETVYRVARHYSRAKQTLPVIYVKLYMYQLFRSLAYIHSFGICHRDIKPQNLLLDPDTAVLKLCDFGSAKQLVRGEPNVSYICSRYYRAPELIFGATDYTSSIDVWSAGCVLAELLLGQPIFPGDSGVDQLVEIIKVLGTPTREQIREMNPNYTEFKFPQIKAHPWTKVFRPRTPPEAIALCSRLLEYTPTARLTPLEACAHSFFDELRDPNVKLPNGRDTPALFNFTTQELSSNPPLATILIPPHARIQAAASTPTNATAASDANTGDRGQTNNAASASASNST

[20] = molecular target: Rho-associated protein kinase 2 (Homo sapiens) (UniProt O75116); assay: Activity at ROCK2 at 3 uM
Sequence of Rho-associated protein kinase 2 (Homo sapiens) (O75116 whole entry, looked up): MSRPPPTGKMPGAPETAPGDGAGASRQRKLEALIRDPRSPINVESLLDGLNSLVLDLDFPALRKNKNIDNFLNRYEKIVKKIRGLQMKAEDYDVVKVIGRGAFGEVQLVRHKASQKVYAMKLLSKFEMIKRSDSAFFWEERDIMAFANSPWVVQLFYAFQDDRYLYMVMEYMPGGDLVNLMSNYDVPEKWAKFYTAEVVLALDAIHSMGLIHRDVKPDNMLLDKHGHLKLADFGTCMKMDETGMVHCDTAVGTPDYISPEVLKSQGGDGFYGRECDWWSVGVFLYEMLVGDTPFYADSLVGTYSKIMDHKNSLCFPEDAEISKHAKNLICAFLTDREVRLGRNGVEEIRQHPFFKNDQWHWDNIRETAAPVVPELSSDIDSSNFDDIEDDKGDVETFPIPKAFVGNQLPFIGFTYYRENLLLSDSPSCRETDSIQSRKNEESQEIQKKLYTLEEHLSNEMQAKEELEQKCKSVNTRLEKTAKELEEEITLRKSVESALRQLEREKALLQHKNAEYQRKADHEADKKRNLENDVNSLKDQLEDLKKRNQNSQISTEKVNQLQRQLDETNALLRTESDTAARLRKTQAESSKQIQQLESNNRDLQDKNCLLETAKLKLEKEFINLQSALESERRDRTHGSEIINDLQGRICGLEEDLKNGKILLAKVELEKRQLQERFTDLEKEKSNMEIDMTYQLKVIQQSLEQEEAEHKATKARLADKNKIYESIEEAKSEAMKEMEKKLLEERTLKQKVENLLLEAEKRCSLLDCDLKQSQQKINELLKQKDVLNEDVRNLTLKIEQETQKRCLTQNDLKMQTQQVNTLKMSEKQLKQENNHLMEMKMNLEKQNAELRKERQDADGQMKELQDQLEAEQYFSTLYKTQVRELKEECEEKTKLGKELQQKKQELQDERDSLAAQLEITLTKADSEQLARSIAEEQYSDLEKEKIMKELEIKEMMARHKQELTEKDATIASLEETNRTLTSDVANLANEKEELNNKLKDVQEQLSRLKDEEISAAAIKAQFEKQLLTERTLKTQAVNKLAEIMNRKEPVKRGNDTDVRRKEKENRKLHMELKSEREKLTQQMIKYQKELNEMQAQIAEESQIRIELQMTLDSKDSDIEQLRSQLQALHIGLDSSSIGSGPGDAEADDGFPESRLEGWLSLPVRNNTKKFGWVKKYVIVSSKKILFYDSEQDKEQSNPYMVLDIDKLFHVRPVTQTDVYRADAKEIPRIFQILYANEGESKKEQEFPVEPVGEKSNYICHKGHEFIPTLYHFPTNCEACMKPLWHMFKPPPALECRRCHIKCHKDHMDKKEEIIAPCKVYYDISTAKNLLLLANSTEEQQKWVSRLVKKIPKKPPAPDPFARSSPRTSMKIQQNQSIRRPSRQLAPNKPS

[21] = Activity at AMPK at 3 uM
[22] = molecular target: Serine/threonine-protein kinase Chk1 (Homo sapiens) (UniProt O14757); assay: Activity at CHK1 at 3 uM
[23] = molecular target: Casein kinase II subunit alpha (Homo sapiens) (UniProt P68400); assay: Activity at CK2 at 3 uM
[24] = molecular target: Cyclin-dependent kinase 2/cyclin A (Homo sapiens) (UniProt P24941+P20248+P78396); assay: Activity at CDK2/cyclin A at 3 uM; format: protein-complex assay
[25] = molecular target: Casein kinase I isoform alpha (Homo sapiens) (UniProt P48729); assay: Activity at CK1 at 3 uM
[26] = molecular target: Dual specificity tyrosine-phosphorylation-regulated kinase 1A (Homo sapiens) (UniProt Q13627); assay: Activity at DYRK1A at 3 uM
[27] = Activity at PP2A at 3 uM
[28] = molecular target: Serine/threonine-protein kinase Nek6 (Homo sapiens) (UniProt Q9HC98); assay: Activity at NEK6 at 3 uM
Sequence of Serine/threonine-protein kinase Nek6 (Homo sapiens) (Q9HC98 whole entry): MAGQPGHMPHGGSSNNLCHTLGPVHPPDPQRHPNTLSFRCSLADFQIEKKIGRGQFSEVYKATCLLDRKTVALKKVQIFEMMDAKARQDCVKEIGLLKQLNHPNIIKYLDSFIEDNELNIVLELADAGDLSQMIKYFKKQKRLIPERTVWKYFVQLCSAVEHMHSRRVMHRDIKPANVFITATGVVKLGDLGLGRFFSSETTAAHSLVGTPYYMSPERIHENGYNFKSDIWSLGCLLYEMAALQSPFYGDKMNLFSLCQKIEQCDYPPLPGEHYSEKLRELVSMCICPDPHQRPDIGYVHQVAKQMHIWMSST

[29] = molecular target: Tyrosine-protein kinase BTK (Homo sapiens) (UniProt Q06187); assay: Activity at Btk at 10 uM
Sequence of Tyrosine-protein kinase BTK (Homo sapiens) (Q06187 whole entry): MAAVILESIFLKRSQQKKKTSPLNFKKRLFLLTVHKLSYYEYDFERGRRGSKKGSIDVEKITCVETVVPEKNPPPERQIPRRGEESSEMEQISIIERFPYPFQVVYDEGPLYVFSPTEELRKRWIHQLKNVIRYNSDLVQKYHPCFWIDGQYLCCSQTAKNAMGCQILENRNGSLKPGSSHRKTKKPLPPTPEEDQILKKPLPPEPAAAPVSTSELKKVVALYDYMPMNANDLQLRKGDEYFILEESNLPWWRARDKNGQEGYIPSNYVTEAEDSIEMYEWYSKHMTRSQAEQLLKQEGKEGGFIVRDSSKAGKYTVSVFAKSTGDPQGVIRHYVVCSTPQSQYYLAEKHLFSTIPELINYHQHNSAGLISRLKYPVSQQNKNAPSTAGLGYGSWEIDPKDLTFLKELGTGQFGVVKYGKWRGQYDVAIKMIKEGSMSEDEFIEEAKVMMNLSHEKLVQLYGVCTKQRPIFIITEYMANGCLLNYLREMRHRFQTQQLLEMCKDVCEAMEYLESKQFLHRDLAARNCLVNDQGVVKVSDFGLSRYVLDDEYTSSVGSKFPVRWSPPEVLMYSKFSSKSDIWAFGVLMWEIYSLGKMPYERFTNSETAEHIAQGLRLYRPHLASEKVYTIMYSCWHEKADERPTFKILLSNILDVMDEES

[30] = molecular target: Ephrin type-A receptor 2 (Homo sapiens) (UniProt P29317); assay: Activity at Eck at 10 uM
[31] = molecular target: Epidermal growth factor receptor (Homo sapiens) (UniProt P00533); assay: Activity at EGFR at 10 uM
Sequence of Epidermal growth factor receptor (Homo sapiens) (P00533 whole entry): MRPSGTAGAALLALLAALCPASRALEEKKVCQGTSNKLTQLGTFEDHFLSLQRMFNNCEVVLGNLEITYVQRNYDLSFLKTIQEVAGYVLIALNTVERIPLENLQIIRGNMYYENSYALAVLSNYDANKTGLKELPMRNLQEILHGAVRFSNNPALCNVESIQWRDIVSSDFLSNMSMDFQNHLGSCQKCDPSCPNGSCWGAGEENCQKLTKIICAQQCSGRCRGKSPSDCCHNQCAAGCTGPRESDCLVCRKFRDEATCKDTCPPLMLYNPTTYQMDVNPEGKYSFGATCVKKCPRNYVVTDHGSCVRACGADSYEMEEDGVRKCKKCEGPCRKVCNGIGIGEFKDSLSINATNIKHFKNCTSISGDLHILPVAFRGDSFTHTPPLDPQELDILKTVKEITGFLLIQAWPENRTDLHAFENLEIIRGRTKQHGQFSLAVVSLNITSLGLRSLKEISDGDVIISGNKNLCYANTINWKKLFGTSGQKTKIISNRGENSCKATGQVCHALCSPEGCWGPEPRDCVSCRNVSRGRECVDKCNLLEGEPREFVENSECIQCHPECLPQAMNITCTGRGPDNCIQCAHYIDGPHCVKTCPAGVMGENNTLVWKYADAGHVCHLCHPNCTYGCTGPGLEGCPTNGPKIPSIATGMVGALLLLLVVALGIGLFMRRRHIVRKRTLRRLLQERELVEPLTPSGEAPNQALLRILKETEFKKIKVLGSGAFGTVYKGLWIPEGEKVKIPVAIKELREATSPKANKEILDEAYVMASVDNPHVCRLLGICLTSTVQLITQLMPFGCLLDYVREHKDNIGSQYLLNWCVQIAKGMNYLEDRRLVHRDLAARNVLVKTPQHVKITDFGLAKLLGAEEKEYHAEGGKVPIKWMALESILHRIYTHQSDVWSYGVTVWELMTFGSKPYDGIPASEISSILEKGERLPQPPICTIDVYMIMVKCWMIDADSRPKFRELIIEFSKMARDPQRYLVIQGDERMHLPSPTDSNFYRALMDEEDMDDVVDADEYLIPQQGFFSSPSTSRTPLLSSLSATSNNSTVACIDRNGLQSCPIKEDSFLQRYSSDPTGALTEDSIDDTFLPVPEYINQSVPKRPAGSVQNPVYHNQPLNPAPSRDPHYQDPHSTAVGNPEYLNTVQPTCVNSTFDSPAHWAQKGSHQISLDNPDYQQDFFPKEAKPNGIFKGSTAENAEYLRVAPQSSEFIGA

[32] = molecular target: Fibroblast growth factor receptor 3 (Homo sapiens) (UniProt P22607); assay: Activity at FGFR3 at 10 uM
[33] = molecular target: Ephrin type-A receptor 3 (Homo sapiens) (UniProt P29320); assay: Activity at Hek at 10 uM; conditions: HEK293
[34] = molecular target: Hepatocyte growth factor receptor (Homo sapiens) (UniProt P08581); assay: Activity at HGFR at 10 uM
[35] = molecular target: Insulin-like growth factor 1 receptor (Homo sapiens) (UniProt P08069); assay: Activity at IGF1R at 10 uM
[36] = molecular target: Insulin receptor (Homo sapiens) (UniProt P06213); assay: Activity at IR at 10 uM
[37] = molecular target: Tyrosine-protein kinase ITK/TSK (Homo sapiens) (UniProt Q08881); assay: Activity at Itk at 10 uM
[38] = molecular target: Tyrosine-protein kinase JAK3 (Homo sapiens) (UniProt P52333); assay: Activity at JAK3 at 10 uM
[39] = molecular target: Tyrosine-protein kinase Lyn (Homo sapiens) (UniProt P07948); assay: Activity at Lyn at 10 uM
Sequence of Tyrosine-protein kinase Lyn (Homo sapiens) (P07948 2-512 limits assumed): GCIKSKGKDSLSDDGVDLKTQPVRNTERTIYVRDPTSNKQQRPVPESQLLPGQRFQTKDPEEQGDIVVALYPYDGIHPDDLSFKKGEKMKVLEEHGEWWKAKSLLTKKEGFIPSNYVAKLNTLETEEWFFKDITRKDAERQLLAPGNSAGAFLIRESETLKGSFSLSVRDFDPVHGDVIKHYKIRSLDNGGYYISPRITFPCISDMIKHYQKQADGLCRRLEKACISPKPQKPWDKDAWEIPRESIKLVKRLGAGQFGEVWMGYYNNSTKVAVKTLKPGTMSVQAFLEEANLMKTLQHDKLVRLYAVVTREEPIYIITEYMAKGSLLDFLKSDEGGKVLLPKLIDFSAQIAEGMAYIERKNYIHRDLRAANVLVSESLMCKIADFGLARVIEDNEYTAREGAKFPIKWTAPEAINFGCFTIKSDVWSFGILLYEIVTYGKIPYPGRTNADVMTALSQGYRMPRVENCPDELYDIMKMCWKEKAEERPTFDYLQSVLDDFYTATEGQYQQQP

[40] = molecular target: Tyrosine-protein kinase SYK (Homo sapiens) (UniProt P43405); assay: Activity at Syk at 10 uM
[41] = molecular target: Tyrosine-protein kinase TXK (Homo sapiens) (UniProt P42681); assay: Activity at TXK at 10 uM
[42] = molecular target: Vascular endothelial growth factor receptor 1 (Homo sapiens) (UniProt P17948); assay: Activity at VEGFR1 at 10 uM
[43] = molecular target: 3-phosphoinositide-dependent protein kinase 1 (Homo sapiens) (UniProt O15530); assay: Activity at PDK1 at 3 uM
Sequence of 3-phosphoinositide-dependent protein kinase 1 (Homo sapiens) (O15530 whole entry, looked up): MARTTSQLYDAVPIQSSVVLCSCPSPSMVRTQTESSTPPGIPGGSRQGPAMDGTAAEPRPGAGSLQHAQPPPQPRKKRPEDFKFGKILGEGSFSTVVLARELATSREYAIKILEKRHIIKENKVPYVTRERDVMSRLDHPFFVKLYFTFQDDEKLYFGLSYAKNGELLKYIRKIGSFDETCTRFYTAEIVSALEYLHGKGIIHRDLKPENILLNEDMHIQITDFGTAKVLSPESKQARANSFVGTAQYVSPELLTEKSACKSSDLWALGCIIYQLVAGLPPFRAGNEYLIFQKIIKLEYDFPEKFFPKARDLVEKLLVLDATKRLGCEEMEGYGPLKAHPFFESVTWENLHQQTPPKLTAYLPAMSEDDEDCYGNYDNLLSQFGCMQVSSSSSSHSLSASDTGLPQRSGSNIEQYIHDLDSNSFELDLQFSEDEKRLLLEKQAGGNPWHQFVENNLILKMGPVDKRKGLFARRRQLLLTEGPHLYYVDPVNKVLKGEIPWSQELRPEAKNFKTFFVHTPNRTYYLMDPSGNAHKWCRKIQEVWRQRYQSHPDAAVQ

Homo sapiens = species on record: Homo sapiens; assay: Protein binding in human plasma; conditions: read-out: PPB (converted)

## COc1c(NC(=O)c2ccc(C)c(N3C=C(C(=O)NCc4ccccc4)NN3)c2)cc(C(C)(C)C)cc1NS(C)(=O)=O
[1]
  Tm: 59.7 °C
THP-1
  IC50: 0.04 µM
Blood
  IC50: 0.93 µM

## COc1c(NC(=O)c2ccc(C)c(N3C=C(C(=O)NCC(C)(C)CN(C)C)NN3)c2)cc(C(C)(C)C)cc1NS(C)(=O)=O
[1]
  Tm: 57.3 °C
THP-1
  IC50: 0.022 µM
Blood
  IC50: 0.083 µM
[2]
  solubility: 13.9 µg/mL (≈ 22.6 µM)
[3]
  Papp: 13 ×10⁻⁶ cm/s
[4]
  Activity: inactive
[5]
  IC50: 1.1 µM
[6]
  Activity: inactive
[7]
  Activity: inactive
[8]
  Activity: inactive
[9]
  Activity: inactive
[10]
  Activity: inactive
[11]
  Activity: inactive
[12]
  Activity: inactive
[13]
  Activity: inactive
[14]
  Activity: inactive
[15]
  Activity: inactive
[16]
  Activity: inactive
[17]
  Activity: inactive
[18]
  Activity: inactive
[19]
  Activity: inactive
[20]
  Activity: inactive
[21]
  Activity: inactive
[22]
  Activity: inactive
[23]
  Activity: inactive
[24]
  Activity: inactive
[25]
  Activity: inactive
[26]
  Activity: inactive
[27]
  Activity: inactive
[28]
  Activity: inactive
[29]
  Activity: inactive
[30]
  Activity: inactive
[31]
  Activity: inactive
[32]
  Activity: inactive
[33]
  Activity: inactive
[34]
  Activity: inactive
[35]
  Activity: inactive
[36]
  Activity: inactive
[37]
  Activity: inactive
[38]
  Activity: inactive
[39]
  Activity: inactive
[40]
  Activity: inactive
[41]
  Activity: inactive
[42]
  Activity: inactive
[43]
  Activity: inactive
Homo sapiens
  fraction unbound: 0.34

## COc1c(NC(=O)c2ccc(C)c(N3C=C(C(=O)NCC(C)(C)C)NN3)c2)cc(C(C)(C)C)cc1NS(C)(=O)=O
[1]
  Tm: 60.5 °C
THP-1
  IC50: 0.014 µM
Blood
  IC50: 0.26 µM
[2]
  solubility: 0.1 µg/mL (≈ 0.175 µM)
Homo sapiens
  fraction unbound: 0.08

## COc1c(NC(=O)c2ccc(C)c(N3C=C(C(=O)N[C@H](C)c4ccccc4)NN3)c2)cc(C(C)(C)C)cc1NS(C)(=O)=O
[1]
  Tm: 64.6 °C
THP-1
  IC50: 0.013 µM
Blood
  IC50: 0.47 µM

## COc1c(NC(=O)c2ccc(C)c(N3C=C(C(=O)NCC(C)(C)N(C)C)NN3)c2)cc(C(C)(C)C)cc1NS(C)(=O)=O
[1]
  Tm: 56.1 °C
THP-1
  IC50: 0.14 µM
Blood
  IC50: 0.79 µM

## COc1c(NC(=O)c2ccc(C)c(N3C=C(C(=O)N(C)Cc4ccccc4)NN3)c2)cc(C(C)(C)C)cc1NS(C)(=O)=O
[1]
  Tm: 57.8 °C
THP-1
  IC50: 0.029 µM
Blood
  IC50: > 15 µM

## COc1c(NC(=O)c2ccc(C)c(N3C=C(C(=O)N[C@@H](C)C(C)(C)C)NN3)c2)cc(C(C)(C)C)cc1NS(C)(=O)=O
[1]
  Tm: 60 °C
THP-1
  IC50: 0.035 µM
Blood
  IC50: 2.6 µM

## COc1c(NC(=O)c2ccc(C)c(N3C=C(C(=O)NCC4CCCCC4)NN3)c2)cc(C(C)(C)C)cc1NS(C)(=O)=O
[1]
  Tm: 56.2 °C
THP-1
  IC50: 0.014 µM
Blood
  IC50: 0.26 µM

## COc1c(NC(=O)c2ccc(C)c(N3C=C(C(=O)NC4CC4)NN3)c2)cc(C(C)(C)C)cc1NS(C)(=O)=O
[1]
  Tm: 56.6 °C
THP-1
  IC50: 0.11 µM
Blood
  IC50: 2.8 µM

## COc1c(NC(=O)c2ccc(C)c(N3C=C(C(=O)NC(C)(C)C)NN3)c2)cc(C(C)(C)C)cc1NS(C)(=O)=O
[1]
  Tm: 56.8 °C
THP-1
  IC50: 0.084 µM
Blood
  IC50: > 15 µM

## COc1c(NC(=O)c2ccc(C)c(N3C=C(C(=O)NCC4CCN(C)CC4)NN3)c2)cc(C(C)(C)C)cc1NS(C)(=O)=O
[1]
  Tm: 57.5 °C
THP-1
  IC50: 0.2 µM
Blood
  IC50: 4.5 µM

## COc1c(NC(=O)c2ccc(C)c(N3C=C(C(=O)NCC(C)(C)O)NN3)c2)cc(C(C)(C)C)cc1NS(C)(=O)=O
[1]
  Tm: 59.9 °C
THP-1
  IC50: 0.018 µM
Blood
  IC50: 0.21 µM
[2]
  solubility: 2 µg/mL (≈ 3.48 µM)
[3]
  Papp: 7.4 ×10⁻⁶ cm/s
Homo sapiens
  fraction unbound: 0.34

## COc1c(NC(=O)c2ccc(C)c(N3C=C(C(=O)NCc4cccnc4)NN3)c2)cc(C(C)(C)C)cc1NS(C)(=O)=O
[1]
  Tm: 57.9 °C
THP-1
  IC50: 0.038 µM
Blood
  IC50: 0.27 µM

## COc1c(NC(=O)c2ccc(C)c(N3C=C(C(=O)N[C@H](CN(C)C)c4ccccc4)NN3)c2)cc(C(C)(C)C)cc1NS(C)(=O)=O
[1]
  Tm: 65.1 °C
THP-1
  IC50: 0.035 µM
Blood
  IC50: 0.5 µM

## CNC(=O)C1=CN(c2cc(C(=O)Nc3cc(C(C)(C)C)cc(NS(C)(=O)=O)c3OC)ccc2C)NN1
[1]
  Tm: 57.3 °C
THP-1
  IC50: 0.11 µM
Blood
  IC50: 8.4 µM

## COc1c(NC(=O)c2ccc(C)c(N3C=C(C(=O)NCc4ccncc4)NN3)c2)cc(C(C)(C)C)cc1NS(C)(=O)=O
[1]
  Tm: 58.8 °C
THP-1
  IC50: 0.074 µM
Blood
  IC50: 0.72 µM

## COc1c(NC(=O)c2ccc(C)c(N3C=C(C(=O)N[C@@H](C)C4CCCCC4)NN3)c2)cc(C(C)(C)C)cc1NS(C)(=O)=O
[1]
  Tm: 56.9 °C
THP-1
  IC50: 0.066 µM
Blood
  IC50: 5.6 µM

## COc1c(NC(=O)c2ccc(C)c(N3C=C(C(=O)N[C@@H](C)c4ccccc4)NN3)c2)cc(C(C)(C)C)cc1NS(C)(=O)=O
[1]
  Tm: 60.1 °C
THP-1
  IC50: 0.027 µM
Blood
  IC50: 2.6 µM

## Cc1ccc(-n2nc(C(C)(C)C)cc2NC(=O)Nc2ccc(OCCN3CCOCC3)c3ccccc23)cc1 [DORAMAPIMOD]
[1]
  Tm: 63.5 °C
[2]
  solubility: 1 µg/mL (≈ 1.9 µM)
[3]
  Papp: 10 ×10⁻⁶ cm/s
[5]
  IC50: 0.006 µM

## COc1c(NC(=O)c2ccc(C)c(N3C=C(C(=O)N[C@H](C)C4CCCCC4)NN3)c2)cc(C(C)(C)C)cc1NS(C)(=O)=O
[1]
  Tm: 60.8 °C
THP-1
  IC50: 0.016 µM
Blood
  IC50: 2.8 µM

## COc1c(NC(=O)c2ccc(C)c(N3C=C(C(=O)N[C@H](C)C(C)(C)C)NN3)c2)cc(C(C)(C)C)cc1NS(C)(=O)=O
[1]
  Tm: 61.6 °C
THP-1
  IC50: 0.014 µM
Blood
  IC50: 1 µM

## COc1c(NC(=O)c2ccc(C)c(N3C=C(C(=O)NCC4CCCN(C)C4)NN3)c2)cc(C(C)(C)C)cc1NS(C)(=O)=O (stereo not given)
[1]
  Tm: 57.4 °C
THP-1
  IC50: 0.028 µM
Blood
  IC50: 0.3 µM

Reference: ChEMBL document CHEMBL1143089, “Structure-based design and subsequent optimization of 2-tolyl-(1,2,3-triazol-1-yl-4-carboxamide) inhibitors of p38 MAP kinase” (Bioorg Med Chem Lett, 2008)
